The source of these data is patent EP2522332A1, “Use of resveratrol and magnesium-ascorbyl-phosphate” (DSM IP Assets B.V., priority 2011, dated 2012).

This experiment has as its system SILV. The experiment can be described thus: Assessment of gene modulation in normal human epidermal melanocytes (NHEM), RT-qPCR / PCR array. The class given is cell-based. To be noted: for activation at 1000 µg/mL: Homo sapiens, Melanocyte. As for the experimental part:
Normal human epidermal melanocytes were cultivated for 24 hours. […] Cells were cultivated for additional 72 hours. All experimental conditions were performed in triplicate.
At the end of the cultivation, the cells were harvested and washed with phosphate buffered saline (PBS) solution and immediately frozen at -80°C. The expression of selected markers was analyzed using RT-qPCR method on mRNA extracted from cells layer for each treatment condition. The differential expression analysis was performed by PCR arrays of the screening format "mQPA H-Melanocyte-64", which focuses on 64 genes selected for their importance in pigmentation and melanocyte biology.
Total RNA was extracted from each sample using TRI-Reagent®. The amount and quality of the RNA was evaluated using a lab-on-a-chip Bioanalyzer (Agilent technologies). Potential contaminants traces of DNA were removed […] The incorporation of fluorescence in amplified DNA was measured continuously during the PCR cycles. […] The value selected for RE calculations is the "output point" (Ct) of the fluorescence curve. For a given marker, the highest is the cycle number; the lowest, is the mRNA quantity. The RE value is expressed in arbitrary units (AU) according to the equation: (((1)/(2)))^NC x 10^6 [formula]
Where NC is the number of cycles.
(In qPCR the cycle at which signal appears reflects the starting amount.)

Molecules are shown by their SMILES. Where two headings read alike, the source gives them in different places.

Consider `O=C1O[C@H]([C@@H](O)CO)C(O)=C1OP(=O)(O)O` [magnesium-ascorbyl-phosphate, magnesium-L-ascorbyl-2-phosphate], for which the activation at 1000 µg/mL was found to be 25% (NHEM cells treated 72 hours, resveratrol 5 µg/ml, magnesium-ascorbyl-phosphate 1 mg/ml, combination 5 µg/ml + 1 mg/ml, versus control, read-out: SILV (expression level of the gene SILV)) and 25% (NHEM cells, magnesium ascorbyl phosphate 1 mg/ml, 72 hours, read-out: induction of the SILV gene). `Oc1ccc(C=Cc2cc(O)cc(O)c2)cc1` [Resveratrol, 3,4',5 trihydroxystilbene]: the “modulation of the gene SILV” value (NHEM cells, resveratrol alone 5 micrograms/ml, 72 hours) was “did not modulate”.
